Laboratory results from patent publication US20260193180A1, “AUTOPHAGY INDUCING COMPOUNDS AND USES THEREOF” (SAMSARA THERAPEUTICS INC., priority 2022, published 2026).

What was measured:
[1] = tested on: C57BL/6JRj mice injured by intra-nigral injections of alpha-synuclein and CBE; test: Mouse model of Parkinson's disease (intra-nigral alpha-synuclein protofibrils plus CBE); format: in vivo; conditions: 30 mg/kg per os once a day
From the text: This model (run by Neuro-Sys SAS, France) uses C57BL/6JRj mice injured by intra-nigral injections of a solution containing protofibrils of alpha-synuclein (α-syn, precisely quantified by automatic Western Blot) and combined with pharmacological inhibition of GBA by conduritol B epoxide (CBE), in aged mice. The model mimics the main pathologies of PD: loss of dopaminergic neurons in the substantia nigra, neuroinflammation, deficits in motor coordination and synucleinopathy (α-syn aggregation). Any substance with positive effects in this model may be useful as a new therapeutic agent for the treatment or prevention of PD.
• Type of animal: C57BL/6JRj (Male) • Age: 18 months old • Supplier: Janvier Labs • Animal number: 10 mice per group • Acclimation and clinical signs: Animals arrived on site 7 days (one week) before the experiment to allow optimal acclimation.
Overview: CBE was administered along with the test compounds, starting on the day of the stereotaxic injections of the α-syn oligomer preparation.
Test compounds at specific concentrations (see below) were administered per os (gavage or drinking water). • Test compound treatment: The test compounds were solubilized (vehicle=water), aliquoted and stored at −20° C. Aliquots were thawed overnight at 4° C. and given once a day. Treatment started on the day of the stereotaxic injections of α-syn preparation (Day 0). Treatment was administrated until the last day of the experiment (Day 28; =day of dissection). • CBE dose and administration: 50 mg/kg, Intraperitoneal (i.p.), twice a day. • CBE treatment: Administration of CBE (vehicle=saline [NaCl 0.9%] started on the day of the stereotaxic injections of α-syn preparation (Day 0). Treatment was administrated until the last day of the experiment (Day 28; =day of dissection), • Untreated control: vehicle (saline; i.p.) administered twice a day, • Stereotaxic injections of α-syn oligomers: Human α-syn peptide (stock at 69 μM in water at −20° C.) was reconstituted at 50 μM in NaCl, 0.9% (final concentration). All mice in compound treated groups were subjected to surgery and received 2.5 μL of α-syn solution. Mice were anesthetized by isoflurane (4%, for induction), in an induction chamber coupled with a vaporizer and to an oxygen concentrator. Mice were placed on the stereotaxic frame. Anesthesia was maintained by isoflurane (2%) with a face mask coupled to the isoflurane vaporizer and oxygen concentrator machine. The skull was exposed and holes were drilled. The α-syn preparation was bilaterally injected into the SNpc, at the following coordinates: A-P, −0.3 mm; M-L, +0.12 mm; D-V, −0.45 mm. Depth of anesthesia and rectal temperature were verified every 5 minutes. After surgery, mice were allowed to recover before being placed back in the cage.
• i) Body mass • ii) Assessment of motor coordination: bar test and grid walking test • iii) Dopaminergic Tyrosine hydroxylase (TH)-positive neuron survival in the substantia nigra pars compacta (SNpc), i.e. a measure of the number of TH neurons in the SNpc • iv) α-syn area in TH positive neurons (a measure of the degree of aggregation of α-syn in TH positive neurons, in the SNpc)
• Overall: For overall evaluation and body mass, mice were observed daily, and body mass was monitored prior to drug administration. • Assessment of motor coordination: bar test.
In the third week (Week 3) post-surgery, motor coordination of the mice was assessed with the bar test. The principle of the test is based on the capacity of the mice to cross a horizontal bar connected to a platform (18 mm of diameter, 60 cm long). The test requires good coordination between front and hindlimbs, and good balance. Mice are placed at one extremity of the bar and need to reach a platform located at the other side of the bar. Motor coordination was studied after two training sessions, one and two days before the test. Three sessions were recorded by a video camera system. […]

[2] = tested on: Human osteosarcoma U2OS cells; test: Acidic vesicle formation (lysosome/autolysosome staining, LysoView 633 / LysoTracker Deep Red), stimulation of autophagy; format: cell-based; conditions: 24 hours
Outline: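 U2OS cells treated with compound for 24 h, then stained 45 min at 37° C with 1× LysoView 633 or 50 nM LysoTracker Deep Red plus Hoechst nuclei. Live-cell fluorescence images (Cy5/DAPI) scored for acidic vesicle formation relative to DMSO control.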

Structure (SMILES): CCOc1ccc(Cl)cc1CN1CC[C@@H](CN)C1.Cl [Compound 12, (S)-(1-(5-chloro-2-ethoxybenzyl)pyrrolidin-3-yl)methanamine hydrochloride]
- bar test: decrease in the mean time required to cross the bar compared to the α-syn/CBE injured group ([1]; week 3): 21%
- bar test: reduction in the mean number of steps required to cross the bar compared to the α-syn/CBE injured group ([1]; week 3): 2%
- bar test: reduction in the number of misplaced steps (failed strides) compared to the α-syn/CBE injured group ([1]; week 3): 33%
- decrease in the aggregation of α-syn in TH neurons (α-syn area) compared to the α-syn/CBE injured group ([1]; week 4): 10%
- grid walking test: increase in the total distance travelled during the test ([1]; week 4): 12%
- grid walking test: reduction in the mean number of failures per meter (number of missed steps) ([1]; week 4): 21%
- increase in the number of dopaminergic TH positive neurons in the SNpc compared to the α-syn/CBE injured group ([1]; week 4): 36%
- activation at 0.8 µM ([2]; 0.8 μM, read-out: Activity (percentage increase in acidic vesicle formation over the DMSO-treated control)): 30 to 50%
- activation at 10 µM ([2]; 10 μM, read-out: increase in acidic vesicle formation over the DMSO-treated control): ≥ 25%
